Laboratory results: patent US4539319A (priority 1982, dated 1985)
Several values for one entry are separate records, joined by “and”; a condition that tells them apart may be missing. Identical values can stand only once. Counter-ions that a name gives are not always drawn. Like-named read-outs stand apart in the source and are kept apart here.

Tests used:
[1] = system: ST from E coli P16; set-up: species or system mice; conditions: mouse, in vivo
[2] = system: ST from E coli P155; set-up: species or system mice; conditions: mouse, in vivo
[3] = system: ST from E coli 431; set-up: species or system mice; conditions: mouse, in vivo
[4] = system: 8 Bromo cyclic GMP; set-up: species or system mice; conditions: mouse, in vivo
[5] = system: enterotoxin induced secretion; experiment: animal or person; format: in vivo, mice; conditions: Mus musculus, po
[6] = Determination of Therapeutic Ratios: LD50 in suckling 8 day old mice; conditions: mouse, in vivo
Procedure: LD50 determinations were made by dosing groups of suckling 8 day old mice with appropriate concentrations orally. Deaths were noted over a 7 day period and LD50s calculated using a probit regression program. ED50 determinations were carried out by dosing groups of 6-8 day old mice with appropriate concentrations orally. The percentage fluid inhibition was determined as above and ED50s calculated using a log/linear regression analysis and the formula given in the British Pharmacopoeia.
For computation of T.R.'s the standard errors of ED50 values were corrected to normalise the errors and the T.R.'s expressed as the ratio (LD50 /ED50) and standard deviation range (Table 3).

[7] = system: E coli B44; experiment: Protection of Neonatal Mice from Lethal Enteropathogenic E coli Infection; format: in vivo, E coli B44 infection in 4 day old mice; conditions: 10 mg/kg b.i.d.; for % mortality in mice dosed with compound: n = 60; for % Reduction in mortality: versus placebo
Procedure: 4 day old mice were orally dosed with 50 μl of phosphate buffered saline containing 1×10^5 organisms/ml of E coli B44. The mice were then dosed b.i.d. with either placebo or drug for four days commencing 16 hours after infection. The animals were left with their mothers throughout the experiment and a daily record of deaths was made. The experiment was terminated when no mortality was seen over a 24 hour period. (Usually 7-10 days after infection). The mortality in the drug group was then compared with the mortality in the placebo group using the following formula:
% Reduction in mortality=[(MP -MD)/MP]× 100
MP =mortality in group having placebo
MD =mortality in group receiving drug
Statistical analysis was performed using 2×2 contingency tables (single tailed `p`).

[8] = system: enterotoxin (culture filtrate) from enteropathogenic E coli strain P16; set-up: species or system piglets; conditions: in vivo; hydrochloride

## COc1ccc(C(=N)N2CCCCC2)c2c1CCCC2.Cl [Example 10, 1-[Imino(4-methoxy-5,6,7,8-tetrahydro-1-naphthyl)-methyl]piperidine, hydrochloride]
[1]; hydrochloride
  % inhibition: 33% and 35%

## CN(C)C(=N)c1ccc(OCc2ccccc2)c2c1CCCC2 [Example 15, 4-Benzyloxy-N',N'-dimethyl-5,6,7,8-tetrahydro-1-naphthamidine, hydrochloride]
[1]; hydrochloride
  % inhibition: 39% and 22%

## CCCCN(CCCC)C(=N)c1ccc(OCc2ccccc2)c2c1CCCC2 [Example 12, N',N'-Di-n-butyl-4-benzyloxy-5,6,7,8-tetrahydro-1-naphthamidine, hydrochloride]
[1]; hydrochloride
  % inhibition: 70% and 52%

## 4-Methoxy-N,N-di-amylamine-5,6,7,8-tetrahydro-1-naphthamidine, hydrochloride [Example 13]
[1]; hydrochloride
  % inhibition: 38% and 33%

## CCCCN(CCCC)C(=N)c1ccc(OC(C)C)c2c1CCCC2 [Example 14, N',N'-di-n-butyl-4-isopropyloxy-5,6,7,8-tetrahydro-1-naphthamidine, hydrochloride]
[1]
  % inhibition: 52%

## CCCN(CCC)C(=N)c1ccc(OC)c2c1CCCC2 [Example 9, 4-methoxy-N',N'-di-n-propyl-5,6,7,8-tetrahydro-1-naphthamidine, hydrochloride]
[1]; hydrochloride
  % inhibition: 43% and 29%

## CCCCN(CCCC)C(=N)c1ccc(O)c2c1CCCC2 [Example 16, N',N'-di-n-butyl-4-hydroxy-5,6,7,8-tetrahydro-1-naphthamidine hydrochloride]
[1]; hydrochloride
  % inhibition: 58% and 41%

## CCCCN(CCCC)C(=N)c1ccc(OC)c2c1CCCC2 [Example 11, N',N'-Di-n-butyl-4-methoxy-5,6,7,8-tetrahydro-1-naphthamidine, hydrochloride]
[1]
  % inhibition (Table 2): 59%
[1]; hydrochloride
  % inhibition: 59% and 32%
[2]
  % inhibition: 31%
[3]
  % inhibition: 47%
[4]
  % inhibition: 42%
[5]
  ED50: 16 mg/kg
[6]; po, therapeutic ratio (T.R.), standard errors of ED50 corrected, range (3.9-8.1)
  selectivity ratio: 5.6
[6]; oral, 8 day old mice, deaths over 7 days, range (83-91)
  LD50 at 168 h: 87 mg/kg
[7]; day 2 post infection, control 31
  % mortality in mice dosed with compound: 25%
[7]; day 2 post infection
  % Reduction in mortality: 18%
[7]; day 3 post infection, control 68, *P < 0.05
  % mortality in mice dosed with compound: 47%
[7]; day 3 post infection
  % Reduction in mortality: 31%
[7]; day 4 post infection, control 79, **P < 0.01
  % mortality in mice dosed with compound: 53%
[7]; day 4 post infection
  % Reduction in mortality: 33%
[7]; day 5 post infection, control 84, ***P < 0.001
  % mortality in mice dosed with compound: 57%
[7]; day 5 post infection
  % Reduction in mortality: 32%
[7]; day 6 post infection, control 84, **P < 0.01
  % mortality in mice dosed with compound: 58%
[7]; day 6 post infection
  % Reduction in mortality: 30%
[7]; day 7 post infection, control 84, **P < 0.01
  % mortality in mice dosed with compound: 58%
[7]; day 7 post infection
  % Reduction in mortality: 30%
[8]
  Mean scour score during 7 hr observation period ± SEM: 2.1 ± 0.3 and 1.2 ± 0.2
